Reference: patent publication US20060223792A1, “Phenyl and pyridyl LTA4H modulators” (priority 2005, published 2006)
Structures can show the parent of a compound that is named as a salt.

The molecules below were run against T1, recombinant human LTA4 hydrolase (rhLTA4H) (Homo sapiens, UniProt P09960) (assay: Recombinant human LTA4 hydrolase assay for LTA4 hydrolase inhibitor activity). Settings: not given.
T1 construct: made in house; host or cells: Spodoptera frugiperda (Sf-9) cells, baculovirus (pFastBac1)
T1 sequence (P09960 1-611): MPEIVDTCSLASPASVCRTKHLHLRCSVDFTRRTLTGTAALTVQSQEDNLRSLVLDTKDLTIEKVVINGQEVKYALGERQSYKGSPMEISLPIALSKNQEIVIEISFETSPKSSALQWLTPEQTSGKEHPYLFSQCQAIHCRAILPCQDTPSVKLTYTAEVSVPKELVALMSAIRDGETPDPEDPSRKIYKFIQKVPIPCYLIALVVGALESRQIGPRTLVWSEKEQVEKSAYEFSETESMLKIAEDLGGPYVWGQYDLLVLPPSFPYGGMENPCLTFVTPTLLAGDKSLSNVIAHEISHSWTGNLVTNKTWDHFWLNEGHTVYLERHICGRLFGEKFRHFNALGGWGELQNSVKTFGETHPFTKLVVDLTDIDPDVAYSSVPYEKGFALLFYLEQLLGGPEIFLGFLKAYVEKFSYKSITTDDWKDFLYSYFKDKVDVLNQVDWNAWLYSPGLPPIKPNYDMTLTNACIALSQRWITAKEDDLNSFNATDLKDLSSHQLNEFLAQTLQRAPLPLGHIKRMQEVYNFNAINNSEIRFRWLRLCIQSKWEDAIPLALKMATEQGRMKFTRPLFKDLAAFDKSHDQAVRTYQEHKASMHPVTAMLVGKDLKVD
Format: biochemical
Experimental: Recombinant Human LTA4 Hydrolase Assay for LTA4 Hydrolase Inhibitor Activity
Compounds of the present invention were tested for LTA4 hydrolase inhibitor activity against recombinant human LTA4 hydrolase (rhLTA4H). Vectors were prepared and used to express rhLTA4H essentially as follows: LTA4 hydrolase encoding DNA was amplified by polymerase chain reaction (PCR) using a human placental cDNA library as a template. Oligonucleotide primers for the PCR reaction were based on the 5′-end, and the complement of the 3′-end, of the published nucleotide sequence for the coding region of the human LTA4 hydrolase gene (C. D. Funk et al., Proc. Natl. Acad. Sci. USA 1987, 84:6677-6681). The amplified […] DNA fragment encoding LTA4 hydrolase was isolated and cloned into the pFastBac1 vector (Invitrogen). Recombinant baculovirus was generated as described by the manufacturer, and used to infect Spodoptera frugiperda (Sf-9) cells. Recombinant LTA4 hydrolase enzyme was purified from the infected Sf-9 cells essentially as described by J. K. Gierse et al. (Protein Expr. Purif. 1993, 4(5):358-366). The purified enzyme solution was adjusted to contain 0.29 mg/mL LTA4 hydrolase, 50 mM Tris (pH 8.0),150 mM NaCl, 5 mM dithiothreitol, 50% glycerol, and EDTA-free Complete protease inhibitor cocktail (Roche). The specific activity of the enzyme was about 3.8 μmol/min/mg.
LTA4 substrate was prepared from the methyl ester of LTA4 (Cayman Chemical) by treatment with 67 equiv. of NaOH under nitrogen at rt for 40 min. The LTA4 substrate in its free acid form was kept frozen at −80° C. until needed. Each compound was diluted to different concentrations in assay buffer (0.1 M potassium phosphate (pH 7.4), 5 mg/mL fatty acid free BSA) containing 10% DMSO. A 25-μL aliquot of each compound dilution was incubated for 10 min at rt with an equal volume of assay buffer containing 36 ng of recombinant human LTA4H. The solution was then adjusted to 200 μL with assay buffer. LTA4 (free acid) was thawed and diluted in assay buffer to a concentration of 357 ng/mL, and 25 μL (9 ng) of LTA4 substrate was added to the reaction mixture (total volume=225 μL) at time zero. Each reaction was carried out at rt for 10 min. The reaction was stopped by diluting 10 μL of the reaction mixture with 200 μL of assay buffer. LTB4 was quantifiedin the diluted sample by a commercially available enzyme-linked immunoassay (Cayman Chemical Co.), as recommended by the manufacturer. Positive controls, under essentially identical conditions but without addition of an inhibitor compound, and negative controls, containing all assay components except enzyme, were routinely run in each experiment. IC50 values were determined by fitting the activity data at different compound concentrations to a 4-parameter equation using the Grafit program (Erithacus software).
The IC50 values presented in the table below should be expected to fall within the typical three-fold variability of assays of this type. The values presented here are, in general, an average of one to three determinations.

Row | SMILES | IC50 [nM]
1 | O=C(Nc1ccc(OCCN2CCCCC2)cc1)Oc1ccccc1 [Example 14, [4-(2-Piperidin-1-yl-ethoxy)-phenyl]-carbamic acid phenyl ester hydrochloride] | 1790

Same assay, conditions: recombinant human LTA4H, LTB4 quantified by enzyme-linked immunoassay; average of one to three determinations; read-out: IC50

Row | SMILES | IC50 [nM]
2 | O=C1CCCN1C1CCN(Cc2ccc(OCCCc3ccccc3)cc2)CC1 [Example 107, 1-{1-[4-(3-Phenyl-propoxy)-benzyl]-piperidin-4-yl}-pyrrolidin-2-one] | 5
3 | O=C(Nc1cccc(O)c1)Oc1ccc(OCCN2CCC(O)(c3ccccc3)CC2)cc1 [Example 11, (3-hydroxy-phenyl)-carbamic acid 4-[2-(4-hydroxy-4-phenyl-piperidin-1-yl)-ethoxy]-phenyl ester] | 0.3
4 | c1ccc(CCOc2ccc(CCN3CCC(c4nnn[nH]4)CC3)cc2)cc1 [Example 30, 1-[2-(4-Phenethyloxy-phenyl)-ethyl]-4-(1H-tetrazol-5-yl)-piperidine] | 27
5 | O=C(Nc1ccccc1)Oc1ccc(OCCN2CCC(CO)CC2)cc1 [Example 51, Phenyl-carbamic acid 4-[2-(4-hydroxymethyl-piperidin-1-yl)-ethoxy]-phenyl ester] | 4
6 | CC(=O)NC1CCN(Cc2ccc(OCCCc3ccccc3)cc2)CC1 [Example 120, N-{1-[4-(3-Phenyl-propoxy)-benzyl]-piperidin-4-yl}-acetamide] | 25
7 | CCOC(=O)C1CCN(CCOc2ccc(OC(=O)N(C)c3cccc(O)c3)cc2)CC1 [Example 8, 1-(2-{4-[(3-Hydroxy-phenyl)-methyl-carbamoyloxy]-phenoxy}-ethyl)-piperidine-4-carboxylic acid ethyl ester] | 100
8 | CCN(CCc1ccc(OC(=O)Nc2ccccc2)cc1)C1CCCCC1 [Example 59, Phenyl-carbamic acid 4-[2-(cyclohexyl-ethyl-amino)-ethyl]-phenyl ester] | 0.6
9 | O=C1NCCC12CCN(Cc1ccc(OCCc3ccccc3)cc1)CC2 [Example 100, 8-(4-Phenethyloxy-benzyl)-2,8-diaza-spiro[4.5]decan-1-one] | 121
10 | O=C(Nc1ccccc1)Oc1ccc(OCCN2CCC(O)(c3ccc(Br)cc3)CC2)cc1 [Example 56, Phenyl-carbamic acid 4-{2-[4-(4-bromo-phenyl)-4-hydroxy-piperidin-1-yl]-ethoxy}-phenyl ester] | 3
11 | Oc1ccc(CCOc2ccc(OCCN3CCCCC3)cc2)cc1 [Example 74, 4-{2-[4-(2-Piperidin-1-yl-ethoxy)-phenoxy]-ethyl}-phenol] | 50
12 | OC1CCCN(Cc2ccc(OCCCc3ccccc3)cc2)C1 (stereo not drawn) [Example 109, 1-[4-(3-Phenyl-propoxy)-benzyl]-piperidin-3-ol] | 23
13 | Fc1ccc(CCOc2ccc(OCCN3CCCCC3)cc2)cc1 [Example 166, 1-(2-{4-[2-(4-Fluoro-phenyl)-ethoxy]-phenoxy}-ethyl)-piperidine] | 248
14 | O=C(Cc1ccc(OCCN2CCCCC2)cc1)Nc1ccccc1O [Example 44, N-(2—hydroxy-phenyl)-2-[4-(2-piperidin-1-yl-ethoxy)-phenyl]-acetamide] | 64
15 | O=C(Nc1ccccc1)Oc1ccc(CCN2CCC(O)(c3ccccc3)CC2)cc1 [Example 17, Phenyl-carbamic acid 4-[2-(4-hydroxy-4-phenyl-piperidin-1-yl)-ethyl]-phenyl ester] | 33
16 | O=C(Cc1ccccc1)Oc1ccc(OCCN2CCCCC2)cc1 [Example 21, Phenyl-acetic acid 4-(2-piperidin-1-yl-ethoxy)-phenyl ester] | 1
17 | COC(=O)NC1CCN(Cc2ccc(OCCCc3ccccc3)cc2)CC1 [Example 121, {1-[4-(3-Phenyl-propoxy)-benzyl]-piperidin-4-yl}-carbamic acid methyl ester] | 8
18 | O=C(Nc1ccccc1)Oc1ccc(OCCN2CCC(O)(c3ccc(Cl)c(C(F)(F)F)c3)CC2)cc1 [Example 54, Phenyl-carbamic acid 4-{2-[4-(4-chloro-3-trifluoromethyl-phenyl)-4-hydroxy-piperidin-1-yl]-ethoxy}-phenyl ester] | 7
19 | O=C(Oc1ccc(OCCN2CCCCC2)cc1)C(Cl)c1ccccc1 (stereo not drawn) [Example 123, Chloro-phenyl-acetic acid 4-(2-piperidin-1-yl-ethoxy)-phenyl ester] | 150
20 | O=C(Nc1ccccc1)Oc1ccc(OCCN2CCC(O)CC2)cc1 [Example 53, Phenyl-carbamic acid 4-[2-(4-hydroxy-piperidin-1-yl)-ethoxy]-phenyl ester] | 3
21 | NC1CCN(Cc2ccc(OCCc3ccccc3)cc2)CC1 [Example 105, 1-(4-Phenethyloxy-benzyl)-piperidin-4-ylamine] | 25
22 | N#CC1CCN(CCc2ccc(OCCc3ccccc3)cc2)CC1 [Example 29, 1-[2-(4-Phenethyloxy-phenyl)-ethyl]-piperidine-4-carbonitrile] | 55
23 | OC1CCN(Cc2ccc(OCCCc3ccccc3)cc2)CC1 [Example 108, 1-[4-(3-Phenyl-propoxy)-benzyl]-piperidin-4-ol] | 16
24 | COC(=O)NC1CCN(Cc2ccc(OCCc3ccccc3)cc2)CC1 [Example 115, [1-(4-Phenethyloxy-benzyl)-piperidin-4-yl]-carbamic acid methyl ester] | 78
25 | O=C(O)C1CCN(CCc2ccc(OCC(O)c3ccccc3)cc2)CC1 (stereo not drawn) [Example 92] | 81
26 | O=C1c2ccccc2CC1Oc1ccc(OCCN2CCCCC2)cc1 (stereo not drawn) [Example 126, 2-[4-(2-Piperidin-1-yl-ethoxy)-phenoxy]-indan-1-one] | 64
27 | CCN(CCc1ccc(OCC(O)c2ccccc2)cc1)C1CCCCC1 (stereo not drawn) [Example 73, 2-{4-[2-(Cyclohexyl-ethyl-amino)-ethyl]-phenoxy}-1-phenyl-ethanol] | 10
28 | O=C1CCCN1C1CCN(CCOc2ccc(OCCc3ccccc3)cc2)CC1 [Example 82, 1-{1-[2-(4-Phenethyloxy-phenoxy)-ethyl]-piperidin-4-yl}-pyrrolidin-2-one] | 6

Each molecule was assayed on LTB4 production by calcium ionophore-stimulated murine blood (assay: LTB4 production by calcium ionophore-stimulated murine blood for LTA4H inhibitor activity). Settings: diluted CD-1 mouse whole blood, calcium ionophore A23187, LTB4 by enzyme-linked immunoassay.
Format: cell-based, CD-1 mice
Experimental: LTB4 Production by Calcium Ionophore-Stimulated Murine Blood for LTA4H Inhibitor Activity
CD-1 mice were sacrificed, and blood was collected in heparin-containing syringes by cardiac puncture. The blood was diluted 1:15 with RPMI-1640 medium, and 200-μL aliquots of the diluted blood were added to wells of a 96-well microtiter plate. LTA4H inhibitor test compounds were prepared at different concentrations in RPMI-1640 medium containing […], and 20 μL of each test solution was added to a well containing diluted whole blood (final DMSO concentration of 0.1%). After the microtiter plate contents were incubated for 15 min at 37° C. in a humidified incubator, calcium ionophore A23187 (Sigma Chemical Co., St. Louis, Mo.) was added to each sample well (final concentration=20 ng/mL). The incubation was continued under the same conditions for an additional 10 min to allow LTB4 formation. The reaction was terminated by centrifugation (833×g, 10 min at 4° C.), and supernatants were analyzed for LTB4 by a commercially available enzyme-linked immunoassay (Cayman Chemical Co.) according to the manufacturer's instructions. Positive controls, under essentially identical conditions but without addition of an inhibitor compound, and negative unstimulated controls, containing all assay components except calcium ionophore, were routinely run in each experiment. IC50 values were determined by fitting the activity data at different compound concentrations to a 4-parameter equation using the Grafit program (Erithacus software).

Row | SMILES | IC50 [nM]
29 | O=C1CCCN1C1CCN(Cc2ccc(OCCCc3ccccc3)cc2)CC1 [Example 107, 1-{1-[4-(3-Phenyl-propoxy)-benzyl]-piperidin-4-yl}-pyrrolidin-2-one] | 33
30 | O=C(Nc1cccc(O)c1)Oc1ccc(OCCN2CCC(O)(c3ccccc3)CC2)cc1 [Example 11, (3-hydroxy-phenyl)-carbamic acid 4-[2-(4-hydroxy-4-phenyl-piperidin-1-yl)-ethoxy]-phenyl ester] | 12
31 | c1ccc(CCOc2ccc(CCN3CCC(c4nnn[nH]4)CC3)cc2)cc1 [Example 30, 1-[2-(4-Phenethyloxy-phenyl)-ethyl]-4-(1H-tetrazol-5-yl)-piperidine] | 169
32 | O=C(Nc1ccccc1)Oc1ccc(OCCN2CCC(CO)CC2)cc1 [Example 51, Phenyl-carbamic acid 4-[2-(4-hydroxymethyl-piperidin-1-yl)-ethoxy]-phenyl ester] | 12
33 | CC(=O)NC1CCN(Cc2ccc(OCCCc3ccccc3)cc2)CC1 [Example 120, N-{1-[4-(3-Phenyl-propoxy)-benzyl]-piperidin-4-yl}-acetamide] | 126
